Reference: article PMC7900708 (Biochemistry and Biophysics Reports, 2021)

Experiments:
[1] = target: T1, MtuUng (Mycobacterium tuberculosis uracil DNA glycosylase) (Mycobacterium tuberculosis, UniProt P9WFQ9); assay: Molecular beacon fluorescence assay of MtuUng activity and inhibition; format: biochemical
T1 sequence (P9WFQ9 1-227): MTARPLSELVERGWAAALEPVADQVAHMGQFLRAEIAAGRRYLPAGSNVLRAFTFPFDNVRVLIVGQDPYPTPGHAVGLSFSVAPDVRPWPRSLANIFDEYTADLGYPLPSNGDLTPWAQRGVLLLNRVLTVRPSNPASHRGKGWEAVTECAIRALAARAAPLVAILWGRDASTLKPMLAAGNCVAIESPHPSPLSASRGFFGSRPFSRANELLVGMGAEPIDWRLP

[2] = tested on: uracil DNA glycosylase; settings: cited from earlier work

| Compound | IC50 [1] [mM] | also measured |
| --- | --- | --- |
| O=c1[nH]cc(F)c(=O)[nH]1 [5-Fluoro-Uracil] | 50.2 ± 3.85 | – |
| O=c1cc[nH]c(=O)[nH]1 [Uracil] | 2.05 ± 0.3 | mode of inhibition [2]: non-competitive |
| O=c1[nH]cc(Br)c(=O)[nH]1 [5-Bromo-Uracil] | 13.6 ± 0.73 | – |
| O=c1[nH]cc(Cl)c(=O)[nH]1 [5-Chloro-Uracil] | 8.71 ± 0.7 | Ki [1]: 7.04 mM; type of inhibition (Lineweaver-Burk plot) ([1]; different inhibitor concentrations, 0.3 nM MtuUng): linear mixed inhibition |
| O=[N+]([O-])c1cnc(O)nc1O [5-Nitro-Uracil] | 10.8 ± 0.32 | – |
| O=c1[nH]cc(I)c(=O)[nH]1 [5-Iodo-Uracil] | 4.92 ± 0.51 | – |
| Nc1c[nH]c(=O)[nH]c1=O [5-Amino-Uracil] | 7.18 ± 0.97 | – |
| O=c1[nH]ccc(=S)[nH]1 [4-Thio-Uracil] | 3.57 ± 0.35 | – |
| O=C1CC(=O)NC(=O)N1 [Barbituric acid] | 7.29 ± 0.32 | – |
